Laboratory results as given in patent US5760241A, “Thiol derivatives with metallopeptidase inhibitory activity” (priority 1996, dated 1998).

Legend:
ACE (SHR lungs) = assay: Ex vivo ACE-inhibitory activity in lungs of treated SHR; design: species or system spontaneously hypertensive rats (SHR)
Procedure: (§1) The ex vivo ACE/NEP-inhibitory activity of the compounds of formula I, in particular, was evaluated by considering the enzymatic activity in tissue homogenates (lung and kidney for the ACE- and NEP-inhibitory activity, respectively) from spontaneously hypertensive rats (SHR), treated with the tested compounds by intravenous or oral route.
b) ACE-inhibitory activity
The ex vivo ACE-inhibitory activity was evaluated by using a radiometric assay method, as reported in the literature by J. W. Ryan et al. in Biochem. J. (1977), 167, 501-504.
The inhibitory activity of the compounds of formula I was evaluated in lungs of spontaneously hypertensive rats (SHR), 5 minutes after i.v. injection (0.6, 0.64 and 21 μmoles/kg) and 30 minutes, 60 minutes and 4 hours after oral administration (30 μmoles/kg) of the tested compounds.
After the removal of the lungs from SHR, the lung tissue was homogenized and incubated for 2 hours at 37° C. in the presence of [^3 H]Hyp-Gly-Gly, as a substrate.
The reaction was stopped by adding hydrochloric acid.
The released radiolabelled hyppuric acid was extracted with ethyl acetate and counted by liquid scintillation spectrometry, according to conventional methods.
The ACE-inhibitory activity of the tested compounds was expressed as percentage of ACE-inhibition in SHR lungs.
(§2) As an example, the percentages of basal enzymatic activity obtained in the ex vivo tests after the administration of compounds 29 and 41, as representative compounds of formula I, and of the comparison compounds R-1, R-2, R-3 and R-4 are reported in the following table 2.

NEP (SHR kidneys) = assay: Ex vivo NEP-inhibitory activity in kidneys of treated SHR; design: species or system spontaneously hypertensive rats (SHR)
Procedure: as §1
a) NEP-inhibitory activity
The ex vivo NEP-inhibitory activity was evaluated according to the procedure reported in the literature by M. Orlowsky et al., in Biochemistry 1981, 20, 4942-4950.
The inhibitory activity of the compounds of formula I was evaluated in kidneys of spontaneously hypertensive rats (SHR), 5 minutes after i.v. injection (0.6, 0.64 and 21 μmoles/kg) and 30 minutes, 60 minutes and 4 hours after oral administration (30 μmoles/kg) of the tested compounds.
After the removal of the kidneys from SHR, the renal tissue was homogenized and incubated for 15 minutes at 37° C. in the presence of Glutaryl-Ala-Ala-Phe-2-naphthylamide (GAAP), as a substrate, and aminopeptidase M at pH 7.6.
The reaction was stopped by adding an aqueous solution at 10% of trichloroacetic acid.
The released 2-naphthylamine was determined by adding fast garnet dye (2 ml).
Enzyme reaction rates were determined by measuring the increase in the optical density at 524 nm (OD524) with respect to a standard obtained with 2-naphthylamine complexed with fast garnet.
The NEP-inhibitory activity of the tested compounds was expressed as percentage of NEP-inhibition in SHR kidneys.
as §2

Row | Structure (SMILES) | ACE-inhibition (lungs), 30 minutes (ACE (SHR lungs); oral 30 μmoles/kg) [%] | ACE-inhibition (lungs), 4 hours (ACE (SHR lungs); oral 30 μmoles/kg) [%] | NEP-inhibition (kidneys), 30 minutes (NEP (SHR kidneys); oral 30 μmoles/kg) | NEP-inhibition (kidneys), 4 hours (NEP (SHR kidneys); oral 30 μmoles/kg) | ACE-inhibition (lungs), 5 minutes (ACE (SHR lungs); i.v. 0.6 μmoles/kg) [%] | ACE-inhibition (lungs), 5 minutes (ACE (SHR lungs); i.v. 21 μmoles/kg) [%] | ACE-inhibition (lungs), 60 minutes (ACE (SHR lungs); oral 30 μmoles/kg, 60 minutes) [%] | NEP-inhibition (kidneys), 5 minutes (NEP (SHR kidneys); i.v. 0.6 μmoles/kg) [%] | NEP-inhibition (kidneys), 5 minutes (NEP (SHR kidneys); i.v. 21 μmoles/kg) [%] | NEP-inhibition (kidneys), 60 minutes (NEP (SHR kidneys); oral 30 μmoles/kg, 60 minutes) [%]
1 | O=C(N[C@@H](Cc1ccccc1)C(=O)O)C(CS)Cc1ccc2c(c1)OCO2 (stereo partly drawn) [R-1, N-[3-mercapto-2-(3,4-methylenedioxyphenyl)methyl-propionyl]-(S)-phenylalanine] | 25 | 20 | 5% | not active |  |  |  |  |  | 
2 | O=C(N[C@@H](Cc1ccc(O)cc1)C(=O)O)C(CS)Cc1ccc2c(c1)OCO2 (stereo partly drawn) [R-2, N-[3-mercapto-2-(3,4-methylenedioxyphenyl)methyl-propionyl]-(S)-tyrosine] | 30 | 25 | 30% | not active |  |  |  |  |  | 
3 | O=C(N[C@@H](Cc1ccc(-c2nccs2)cc1)C(=O)O)[C@@H](CS)Cc1ccccc1 [compound 29, N-[(2S)-3-mercapto-2-phenylmethylpropionyl]-4-(2-thiazolyl)-L-phenylalanine] | 60 | 45 | 55% | 40% | 15 | 72 | 36 | 34 | 49 | 39
4 | CC(CS)C(=O)N[C@@H](Cc1ccc(O)cc1)C(=O)O (stereo partly drawn) [R-3, N-(3-mercapto-2-methylpropanoyl)-L-tyrosine] | 25 | 20 | 10% | 5% |  |  |  |  |  | 
5 | CC(CS)C(=O)N[C@@H](Cc1c[nH]c2ccccc12)C(=O)O (stereo partly drawn) [R-4, N-(3-mercapto-2-methylpropanoyl)-L-triptophan] | 25 | 10 | not active | not active |  |  |  |  |  | 
